Common to all, as to assay type: cell-based, mouse
Settings in all cases: co-transfection in HeLa

One series concerns Mmp14 3'UTR. Nature of the series: 3'UTR luciferase reporter assay, Mmp14. As for the experimental part:
(§1) For NFκB reporter assays the pGL4.32 [luc2P/NF-κB-RE/Hygro] vector (Promega) was co-transfected with a Renilla-luciferase plasmid into cells. After 24 hours, cells were treated with 50 ng/ml RANKL, 50 ng/ml sICAM1, or 10 ng/ml TNFα for analysis at indicated timepoints. Wildtype and mutant 3′UTRs were PCR amplified from mouse genomic DNA. The 3′UTRs were cloned into the pMIR-REPORT vector (AMBION®) downstream of firefly luciferase. Mutations in miRNA target sites were generated using the QuikChange Multi site-directed mutagenesis kit (Stratagene). 5×10^4 HeLa cells were plated in 24-well plates 24 hours prior to transfection. 200 ng of reporter plasmid was co-transfected with the renilla-luciferase control plasmid and 10 pM pre-miRNA precursor or precursor control (AMBION®) using Lipofectamine 2000 (Invitrogen). Cells were lysed 24 hours after transfection and assayed for luciferase activity using the Glomax 96 Luminometer (Promega). Primer sequences for cloning or mutagenesis are listed below:
(§2) Reporter constructs were co-transfected with pre-miRs, as well as a Renilla luciferase plasmid for normalization.

The subject of another series is Calcr 3'UTR. Nature of the series: 3'UTR luciferase reporter assay, Calcr. As for the experimental part: as §1, §2
A further series has as its system Traf6 3'UTR. Nature of the series: 3'UTR luciferase reporter assay, Traf6. On the procedure: as §1, §2

In the case of “miR-133a: miRNA, SEQ ID NO: 61; delivered as pre-miRNA precursor; targets Mitf and Mmp14 (UUUGGUCCCCUUCAACCAGCUA; delivered as pre-miRNA precursor, chemistry not given here; listed as Homo sapiens)”, the “luciferase reporter activity, Mmp14 3'UTR” value with Mmp14 3'UTR is recorded as “repressed”.
Turning to “miR-141: miRNA, SEQ ID NO: 69; delivered as pre-miRNA precursor; targets Mitf and Calcr (UAACACUGUCUGGUAACGAUGU; delivered as pre-miRNA precursor, chemistry not given here; listed as Homo sapiens)”, the “luciferase reporter activity, Calcr 3'UTR” value in the series on Calcr 3'UTR was “repressed”.
Take “miR-190: miRNA, SEQ ID NO: 64; delivered as pre-miRNA precursor; targets Calcr (UGAUAUGUUUGAUAUAUUAGGU; delivered as pre-miRNA precursor, chemistry not given here; listed as Homo sapiens)”: in the series on Calcr 3'UTR, the “luciferase reporter activity, Calcr 3'UTR” value was “able to repress”.
For the substance “miR-219: miRNA, SEQ ID NO: 66; delivered as pre-miRNA precursor; targets Mitf and Traf6 (UGAUUGUCCAAACGCAAUUCU; delivered as pre-miRNA precursor, chemistry not given here; listed as Homo sapiens)”, the “luciferase reporter activity, Traf6 3'UTR” value with Traf6 3'UTR is given as “repressed”.
